Source: patent publication US20050171358A1 (priority 2002, published 2005)

How the values were obtained:
[1] = tested on: Pyricularia oryzae; assay type: in vivo; settings: 200 ppm spray on rice (Koshihikari, 3 leaf stage), inoculated next day; lesion numbers on third leaves after 7 days in green house, graded by Table 5
[2] = tested on: Colletotrichum lagenarium; settings: 200 ppm spray on cucumber (3 leaf stage), inoculated next day; lesion numbers on first and second leaves after 7 days in green house, graded by Table 5

Row | SMILES | Evaluation (effect for rice blast) [1] | Evaluation (effect for cucumber anthracnose) [2]
1 | O=C(NCc1cc(-c2ccccc2)no1)NC1CCCCC1 [II-7, 3-[(3-phenyl-5-isoxazolyl)methyl]-1-cyclohexyl urea] | 5 (0) | 5 (0)
2 | Cc1ccc(-c2cc(CNC(=O)NC3CCCCC3)on2)cc1 [II-9, 1-{[3-(4-tolyl)-5-isoxazolyl]methyl}-3-cyclohexylurea] | 5 (0) | 5 (0)
3 | Cc1ccc(-c2cc(CNC(=O)NC3CCCC3)on2)cc1 [II-10, 3-[3-(4-tolyl)-5-isoxazolyl]methyl-1-cyclopentylurea] | 4 (1˜5) | 5 (0)
4 | CN(C(=O)NCc1cc(-c2ccccc2)no1)c1ccccc1 [II-12, 3-[(3-phenyl-5-isoxazolyl]methyl]-1-methyl-1-phenyl urea] | 4 (1˜5) | 4 (1˜5)
5 | O=C(NCc1cc(Cc2ccccc2)no1)NC1CCCCC1 [II-13, 1-[(3-benzyl-5-isoxazolyl)methyl]-3-cyclohexylurea] | 5 (0) | 5 (0)
6 | O=C(NCc1cc(Cc2ccccc2)no1)NC1CCCC1 [II-14, 1-[(3-benzyl-5-isoxazolyl)methyl]-3-cyclopentylurea] | 4 (1˜5) | 5 (0)
7 | CC(C)c1cc(CNC(=O)NC2CCCCC2)on1 [II-15, 1-[(3-isopropyl-5-isoxazolyl)methyl]-3-cyclohexylurea] | 3 (6˜10) | 4 (1˜5)
8 | O=C(NCc1cc(-c2ccccc2)no1)Nc1ccccc1Cl [II-48, 1-[(3-phenyl-5-isoxazolyl)methyl]-3-(2-chlorophenyl)urea] | 3 (6˜10) | 4 (1˜5)
9 | O=C(NCc1cc(-c2ccccc2)no1)Nc1cccnc1 [II-100, 1-[(3-phenyl-5-isoxazolyl)methyl]-3-(3-pyridyl)urea] | 4 (1˜5) | 4 (1˜5)
10 | O=C(NCc1cc(COc2ccccc2)no1)NC1CCCCC1 [II-104, 3-(3-phenoxymethyl-5-isoxazolyl)methyl-1-cyclohexylurea] | 5 (0) | 5 (0)
11 | O=C(NCc1cc(COc2ccccc2)no1)NC1CCCC1 [II-106, 3-(3-phenoxymethyl-5-isoxazolyl)methyl-1-cyclopentylurea] | 3 (6˜10) | 2 (11˜20)
12 | Cc1cc(CNC(=O)NC2CCCCC2)on1 [II-108, 3-(3-methyl-5-isoxazolyl)methyl-1-cyclohexylurea] | 1 (21˜41) | 2 (11˜20)
13 | CNC(=O)c1cc(CNC(=O)NC2CCCCC2)on1 [II-110, 3-(3-methylaminocarbonyl-5-isoxazolyl)methyl-1-cyclohexylurea] | 1 (21˜41) | 1 (21˜41)
14 | O=C(NCc1cc(COC2=CC(=O)C3CCC2C3)no1)NC1CCCCC1 (centres unmarked) [II-112, 3-[3-(bicyclo[3.2.1]oct-2-en-4-on-2-yl)oxymethyl-5-isoxazolyl]methyl-1-cyclohexylurea] | 3 (6˜10) | 3 (6˜10)
15 | N#CCc1cc(CNC(=O)NC2CCCCC2)on1 [II-113, 3-(3-cyanomethyl-5-isoxazolyl)methyl-1-cyclohexylurea] | 2 (11˜20) | 1 (21˜41)
16 | CSCc1cc(CNC(=O)NC2CCCCC2)on1 [II-114, 3-(3-methylthiomethyl-5-isoxazolyl)methyl-1-cyclohexylurea] | 3 (6˜10) | 3 (6˜10)
17 | CC(C)c1cc(CNC(=O)c2ccccc2)on1 [III-4, N-[(3-isopropyl-5-isoxazolyl)methyl]benzamide] | 3 (6˜10) | 4 (1˜5)
18 | Cc1ccc(C(=O)NCc2cc(C(C)C)no2)cc1 [III-5, N-[(3-isopropyl-5-isoxazolyl)methyl]-4-methyl benzamide] | 4 (1˜5) | 4 (1˜5)
19 | O=C(NCc1cc(C2CCCCC2)no1)c1ccccc1 [III-6, N-[(3-cyclohexyl-5-isoxazolyl)methyl]benzamide] | 5 (0) | 4 (1˜5)
20 | Cc1ccc(-c2cc(CNC(=O)c3ccccc3)on2)cc1 [III-10, N-{[3-(4-tolyl)-5-isoxazolyl]methyl}benzamide] | 5 (0) | 5 (0)

Row | SMILES | Evaluation (effect for rice blast) [1] | Evaluation (effect for cucumber anthracnose) [2]
21 | Cc1ccc(C(=O)NCc2cc(-c3ccc(C)cc3)no2)cc1 [III-11, N-{[3-(4-tolyl)-5-isoxazolyl]methyl}-4-methylbenzamide] | 5 (0) | 3 (6˜10)
22 | COc1ccc(C(=O)NCc2cc(-c3ccc(C)cc3)no2)cc1 [III-12, N-{[3-(4-tolyl)-5-isoxazolyl]methyl}-4-methoxybenzamide] | 5 (0) | 5 (0)
23 | COc1ccc(C(=O)NCc2cc(-c3ccc(C(C)(C)C)cc3)no2)cc1 [III-14, N-{[3-(4-t-butylphenyl)-5-isoxazolyl]methyl}-4-methoxybenzamide] | 5 (0) | 3 (6˜10)
24 | COc1ccc(-c2cc(CNC(=O)c3ccccc3)on2)cc1 [III-17, N-{[3-(4-methoxyphenyl)-5-isoxazolyl]methyl}benzamide] | 5 (0) | 5 (0)
25 | COc1ccc(C(=O)NCc2cc(-c3ccc(OC)cc3)no2)cc1 [III-18, N-{[3-(4-methoxyphenyl)-5-isoxazolyl]methyl}-4-methoxy benzamide] | 5 (0) | 5 (0)
26 | COc1ccc(-c2cc(CNC(=O)c3ccc(C)cc3)on2)cc1 [III-19, N-{[3-(4-methoxyphenyl)-5-isoxazolyl]methyl}-4-methylbenzamide] | 5 (0) | 5 (0)
27 | Cc1ccc(C(=O)NCc2cc(-c3ccc(S(C)(=O)=O)cc3)no2)cc1 [III-26, N-{[3-(4-mesylphenyl)-5-isoxazolyl]methyl}-4-methylbenzamide] | 5 (0) | 5 (0)
28 | Cc1ccc(C(=O)NCc2cc(-c3ccc([S+](C)[O-])cc3)no2)cc1 (centres unmarked) [III-27, N-{[3-(4-methanesulfinylphenyl)-5-isoxazolyl]methyl}-4-methylbenzamide] | 5 (0) | 5 (0)
29 | CSc1ccc(-c2cc(CNC(=O)c3ccc(C)cc3)on2)cc1 [III-28, N-{[3-(4-methylthiophenyl)-5-isoxazolyl]methyl}-4-methylbenzamide] | 5 (0) | 4 (1˜5)
30 | Cc1ccc(C(=O)NCc2cc(-c3ccc(F)cc3)no2)cc1 [III-31, N-{[3-(4-fluorophenyl)-5-isoxazolyl]methyl}-4-methylbenzamide] | 5 (0) | 5 (0)
31 | O=C(NCc1cc(-c2ccc(Cl)cc2)no1)c1ccccc1 [III-34, N-{[3-(4-chlorophenyl)-5-isoxazolyl]methyl}benzamide] | 5 (0) | 5 (0)
32 | O=C(NCc1cc(-c2ccc(Br)cc2)no1)c1ccccc1 [III-37, N-{[3-(4-bromophenyl)-5-isoxazolyl]methyl}benzamide] | 5 (0) | 3 (6˜10)
33 | O=C(NCc1cc(-c2ccc(C(F)(F)F)cc2)no1)c1ccccc1 [III-40, N-{[3-(4-trifluoromethylphenyl)-5-isoxazolyl]methyl}benzamide] | 5 (0) | 5 (0)
34 | Cc1ccc(C(=O)NCc2cc(-c3ccc(C#N)cc3)no2)cc1 [III-43, N-{[3-(4-cyanophenyl)-5-isoxazolyl]methyl}-4-methylbenzamide] | 5 (0) | 4 (1˜5)
35 | COc1ccc(C(=O)NCc2cc(-c3ccc(OC(F)(F)F)cc3)no2)cc1 [III-49, N-{[3-(4-trifluoromethoxyphenyl)-5-isoxazolyl]methyl}-4-methoxybenzamide] | 5 (0) | 5 (0)
36 | Cc1ccc(C(=O)NCc2cc(-c3ccc(C(=O)O)cc3)no2)cc1 [III-51, N-{[3-(4-carboxyphenyl)-5-isoxazolyl]methyl}-4-methylbenzamide] | 5 (0) | 4 (1˜5)
37 | COC(=O)c1ccc(-c2cc(CNC(=O)c3ccc(C)cc3)on2)cc1 [III-52, N-{[3-(4-methoxycarbonylphenyl)-5-isoxazolyl]methyl}-4-methylbenzamide] | 5 (0) | 5 (0)
38 | Cc1ccc(C(=O)NCc2cc(-c3ccc(N(C)C)cc3)no2)cc1 [III-61, N-{[3-(4-dimethylaminophenyl)-5-isoxazolyl]methyl}-4-methylbenzamide] | 5 (0) | 4 (1˜5)
39 | Cc1ccc(C(=O)NCc2cc(-c3ccc(C)cc3C)no2)cc1 [III-65, N-{[3-(2,4-dimethylphenyl)-5-isoxazolyl]methyl}-4-methylbenzamide] | 5 (0) | 5 (0)
40 | COc1ccc(-c2cc(CNC(=O)c3ccc(C)cc3)on2)c(OC)c1 [III-66, N-{[3-(2,4-dimethoxyphenyl)-5-isoxazolyl]methyl}-4-methylbenzamide] | 5 (0) | 5 (0)
